Assay results: patent US20240002383A1 (priority 2021, published 2024)
“Also recorded” adds a separate entry of the source.

Columns and labels:
[1] = test system: IFNb, CXCL-10, CXCL-9, CCL-2, TNFα, IL-1β, and IL-6 in lymph nodes; assay: Innate immune response in mice after intramuscular injection of STING agonists (qPCR of cytokines in draining lymph nodes); format: in vivo; settings: 20 μg intramuscular, 6 hrs
HIV NHR trimer (N3G) = format: in vivo; settings: mice, CF501 as adjuvant, sera 7 days after the second vaccination
[2] = test system: IFNγ, TNFα and IL-4 secretion; parameters: species or system mice; settings: mouse, in vivo
[3] = test system: cytokines in draining lymph nodes; settings: mouse, in vivo
SARS-CoV-2 pseudovirus = test system: SARS-CoV-2 pseudovirus; parameters: species or system New Zealand white rabbits; settings: rabbit, in vivo

## CCn1nc(C)cc1C(=O)Nc1nc2cc(C(N)=O)cnc2n1C/C=C/Cn1c(NC(=O)c2cc(C)nn2CC)nc2cc(C(N)=O)cc(OCCCN3CCOCC3)c21 [CF501, (E)-3-(4-(5-carbamoyl-2-(1-ethyl-3-methyl-1H-pyrazole-5-carboxamido)-7-(3-morpholinopropoxy)-1H-benzo[d]imidazol-1-yl)but-2-en-1-yl)-2-(1-ethyl-3-methyl-1H-pyrazole-5-carboxamido)-3H-imidazo[4,5-b]pyridine-6-carboxamide]
[1]
  production of the cytokines in lymph nodes: can activate a large production of the cytokines; also recorded: more potently than cGAMP
HIV NHR trimer (N3G)
  antibody immune response to the HIV NHR trimer (N3G): can significantly enhance the antibody immune response in vaccinated mice
[2]
  T cell immune response in mice: can strongly activate the T cell immune response in mice
[3]
  inflammation in the mice (transient activation, safety): does not cause inflammation in the mice

## CCn1nc(C)cc1C(=O)Nc1nc2cc(C(N)=O)ccc2n1C/C=C/Cn1c(NC(=O)c2cc(C)nn2CC)nc2cc(C(N)=O)cnc21 [CF502, (E)-3-(4-(5-carbamoyl-2-(1-ethyl-3-methyl-1H-pyrazole-5-carboxamido)-1H-benzo[d]imidazol-1-yl)but-2-en-1-yl)-2-(1-ethyl-3-methyl-1H-pyrazole-5-carboxamido)-3H-imidazo[4,5-b]pyridine-6-carboxamide]
SARS-CoV-2 pseudovirus
  neutralizing antibodies relative to Alum (in words): could not induce more potent neutralizing antibodies relative to Alum in the rabbits

## CCn1nc(C)cc1C(=O)Nc1nc2cc(C(N)=O)cnc2n1C/C=C/Cn1c(NC(=O)c2cc(C)nn2CC)nc2cc(C(N)=O)cc(OCCCN3CCNCC3)c21 [CF508, (E)-3-(4-(5-carbamoyl-2-(1-ethyl-3-methyl-1H-pyrazole-5-carboxamido)-7-(3-(piperazin-1-yl)propoxy)-1H-benzo[d]imidazol-1-yl)but-2-en-1-yl)-2-(1-ethyl-3-methyl-1H-pyrazole-5-carboxamido)-3H-imidazo[4,5-b]pyridine-6-carboxamide]
SARS-CoV-2 pseudovirus
  neutralizing antibodies relative to Alum (in words): could not induce more potent neutralizing antibodies relative to Alum in the rabbits

## CCn1nc(C)cc1C(=O)Nc1nc2cc(C(N)=O)cnc2n1C/C=C/Cn1c(NC(=O)c2cc(C)nn2CC)nc2cc(C(N)=O)cc(OCCN3CCOCC3)c21 [CF510, (E)-3-(4-(5-carbamoyl-2-(1-ethyl-3-methyl-1H-pyrazole-5-carboxamido)-7-(2-morpholinoethoxy)-1H-benzo[d]imidazol-1-yl)but-2-en-1-yl)-2-(1-ethyl-3-methyl-1H-pyrazole-5-carboxamido)-3H-imidazo[4,5-b]pyridine-6-carboxamide]
SARS-CoV-2 pseudovirus
  neutralizing antibodies relative to Alum (in words): could not induce more potent neutralizing antibodies relative to Alum in the rabbits

## CCn1nc(C)cc1C(=O)/N=c1\n(C)c2cc(C(N)=O)cnc2n1C/C=C/Cn1/c(=N/C(=O)c2cc(C)nn2CC)n(C)c2cc(C(N)=O)cc(OCCCN3CCOCC3)c21 [CF512, (E)-3-((E) 4-((E)-5-carbamoyl-2-((1-ethyl-3-methyl-1H-pyrazole-5-carbonyl)imino)-3-methyl-7-(3-morpholinopropoxy)-2,3-dihydro-1H-benzo[d]imidazol-1-yl)but-2-en-1-yl)-2-((1-ethyl-3-methyl-1H-pyrazole-5-carbonyl)imino)-1-methyl-2,3-dihydro-1H-imidazo[4,5-b]pyridine-6-carboxamide]
SARS-CoV-2 pseudovirus
  neutralizing antibodies relative to Alum (in words): could not induce more potent neutralizing antibodies relative to Alum in the rabbits

## Nc1nc2c(ncn2[C@@H]2O[C@@H]3COP(=O)(O)O[C@H]4[C@@H](O)[C@H](n5cnc6c(N)ncnc65)O[C@@H]4COP(=O)(O)O[C@H]3[C@H]2O)c(=O)[nH]1 [cGAMP, 3′-3′ cGAMP, reference compound]
[1]
  production of the cytokines in lymph nodes: can activate a large production of the cytokines
